The values below come from patent US12446583B2, “Methods of pest control in soybean” (SYNGENTA CROP PROTECTION AG, priority 2012, dated 2025).

In this experiment the test system is Euschistus heros. Nature of the experiment: Euschistus heros (Neotropical Brown Stink Bug) contact/feeding activity on sprayed soybean plants. The experiment is classed as in vivo. Conditions: for mortality at 50 ppm: 120 h, read-out: control (mortality and growth effects). Here is the method: Euschistus heros (Neotropical Brown Stink Bug) (Contact/Feeding Activity)
2 week old soybean plants are sprayed in a turn table spray chamber with the diluted spray solutions. After drying, 2 soybean seeds are added and plants are infested with 10 N-2 nymphs of the neotropical brown stink bug Euschistus heros in plastic test boxes. Boxes are incubated in a climate chamber at 25° C. and 60% RH. Evaluation is done 5 days after infestation on mortality and growth effects.
Compounds are tested according to the above method.

Regarding `CCN1OCC(NC(=O)c2ccc(C3=NOC(c4cc(Cl)c(Cl)c(Cl)c4)(C(F)(F)F)C3)cc2Cl)C1=O` (stereo not shown) [Compound A1], the mortality at 50 ppm is no less than 80%.

Turning to `CCN1OCC(NC(=O)c2ccc(C3=NOC(c4cc(Cl)cc(Cl)c4)(C(F)(F)F)C3)cc2Br)C1=O` (stereo not shown) [Compound A2], the mortality at 50 ppm is no less than 80%.

Turning to `CCN1OCC(NC(=O)c2ccc(C3=NOC(c4cc(Cl)c(Cl)c(Cl)c4)(C(F)(F)F)C3)cc2Br)C1=O` (stereo not shown) [Compound A3], the mortality at 50 ppm was no less than 80%.

`CCN1OCC(NC(=O)c2ccc(C3=NOC(c4cc(Cl)cc(Cl)c4)(C(F)(F)F)C3)cc2C(F)(F)F)C1=O` (stereo not shown) [Compound A4]: the mortality at 50 ppm was no less than 80%.

Take `CCN1OCC(NC(=O)c2ccc(C3=NOC(c4cc(Cl)c(Cl)c(Cl)c4)(C(F)(F)F)C3)cc2C(F)(F)F)C1=O` (stereo not shown) [Compound A5]: the mortality at 50 ppm is no less than 80%.

With `Cc1cc(C2=NOC(c3cc(Cl)cc(Cl)c3)(C(F)(F)F)C2)ccc1C(=O)NC1CON(C)C1=O` (stereo not shown) [Compound A15], the mortality at 50 ppm is no less than 80%.

As for `CCN1OCC(NC(=O)c2ccc(C3=NOC(c4cc(Cl)cc(Cl)c4)(C(F)(F)F)C3)cc2C)C1=O` (stereo not shown) [Compound A17], the mortality at 50 ppm is no less than 80%.

As to `Cc1cc(C2=NOC(c3cc(Cl)cc(Cl)c3)(C(F)(F)F)C2)ccc1C(=O)N[C@@H]1CON(CC(F)(F)F)C1=O` (stereo partly shown) [Compound of the invention], the Control/% (application rate 0.8 ppm) is on record as 15%, the Control/% (application rate 3 ppm) is reported as 85% and the Control/% (application rate 12.5 ppm) is recorded as 100%.

In the case of `Cc1cc(C2=NOC(c3cc(Cl)cc(Cl)c3)(C(F)(F)F)C2)ccc1C(=O)N[C@@H]1CON(Cc2ccccc2)C1=O` (stereo partly shown) [Reference compound, reference compound], the Control/% runs as follows: (application rate 0.8 ppm) 0%; (application rate 3 ppm) 35%; (application rate 12.5 ppm) 90%.

Usually mortality stands for the share of the test organisms that died.
